Assay results reported in ChEMBL document CHEMBL5143593 (Eur J Med Chem, 2022).

Columns and labels:
[1] = target: 5-hydroxytryptamine receptor 2A (Homo sapiens, UniProt P28223); assay: Displacement of [3H]-ketanserin from human 5-HT2A receptor expressed in CHO-K1 cells measured after 1.5 hrs by Microbeta plate reader method; format: cell-based
D(2) dopamine receptor = D(2) dopamine receptor (Homo sapiens, UniProt P14416); assay: Displacement of [3H]-raclopride from human D2L receptor expressed in HEK293 cells measured after 1 hr by Microbeta plate reader method; format: cell-based
Chain of D(2) dopamine receptor (P14416 whole entry): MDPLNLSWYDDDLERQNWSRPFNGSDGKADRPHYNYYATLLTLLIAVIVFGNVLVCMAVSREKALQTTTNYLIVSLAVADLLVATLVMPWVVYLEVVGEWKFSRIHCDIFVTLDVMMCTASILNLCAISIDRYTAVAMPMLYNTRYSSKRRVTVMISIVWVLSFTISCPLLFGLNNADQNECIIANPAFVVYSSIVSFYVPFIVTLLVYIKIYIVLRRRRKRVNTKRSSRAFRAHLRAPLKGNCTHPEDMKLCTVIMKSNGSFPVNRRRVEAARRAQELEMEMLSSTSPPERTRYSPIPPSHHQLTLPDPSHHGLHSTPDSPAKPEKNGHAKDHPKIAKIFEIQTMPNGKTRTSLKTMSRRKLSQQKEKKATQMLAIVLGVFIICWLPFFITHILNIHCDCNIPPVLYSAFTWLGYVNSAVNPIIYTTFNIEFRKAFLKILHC

[2] = target: T1, 5-hydroxytryptamine receptor 3A (Cavia porcellus, UniProt O70212); assay: Antagonist activity at 5-HT3 receptor in guinea-pig ileum assessed as inhibition of 5HT-induced contraction; format: tissue-based
T1 sequence (O70212 whole entry): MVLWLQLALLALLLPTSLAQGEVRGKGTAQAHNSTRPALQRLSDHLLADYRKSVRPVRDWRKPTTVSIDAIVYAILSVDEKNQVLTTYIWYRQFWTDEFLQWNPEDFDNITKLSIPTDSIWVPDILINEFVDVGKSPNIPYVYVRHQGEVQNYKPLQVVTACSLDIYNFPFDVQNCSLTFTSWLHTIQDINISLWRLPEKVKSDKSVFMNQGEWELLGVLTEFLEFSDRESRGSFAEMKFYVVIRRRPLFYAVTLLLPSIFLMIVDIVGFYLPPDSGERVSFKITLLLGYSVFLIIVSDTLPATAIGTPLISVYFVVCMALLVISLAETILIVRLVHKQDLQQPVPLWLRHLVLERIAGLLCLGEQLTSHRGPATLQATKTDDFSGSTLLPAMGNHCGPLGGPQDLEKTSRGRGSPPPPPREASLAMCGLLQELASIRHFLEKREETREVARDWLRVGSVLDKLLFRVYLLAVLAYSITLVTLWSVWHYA

[3] = Permeability of compound at pH 7.4 by PAMPA assay
[4] = Cytotoxicity against CHO-K1 cells measured after 24 hrs by MTT assay; format: toxicity, cell-based, Cricetulus griseus; conditions: Chinese hamster
[5] = target: T2, 5-hydroxytryptamine receptor 3A (Homo sapiens) (UniProt P46098); assay: Competitive binding affinity towards 5-HT3 receptor (unknown origin); conditions: filed as antagonist
T2 sequence (whole entry): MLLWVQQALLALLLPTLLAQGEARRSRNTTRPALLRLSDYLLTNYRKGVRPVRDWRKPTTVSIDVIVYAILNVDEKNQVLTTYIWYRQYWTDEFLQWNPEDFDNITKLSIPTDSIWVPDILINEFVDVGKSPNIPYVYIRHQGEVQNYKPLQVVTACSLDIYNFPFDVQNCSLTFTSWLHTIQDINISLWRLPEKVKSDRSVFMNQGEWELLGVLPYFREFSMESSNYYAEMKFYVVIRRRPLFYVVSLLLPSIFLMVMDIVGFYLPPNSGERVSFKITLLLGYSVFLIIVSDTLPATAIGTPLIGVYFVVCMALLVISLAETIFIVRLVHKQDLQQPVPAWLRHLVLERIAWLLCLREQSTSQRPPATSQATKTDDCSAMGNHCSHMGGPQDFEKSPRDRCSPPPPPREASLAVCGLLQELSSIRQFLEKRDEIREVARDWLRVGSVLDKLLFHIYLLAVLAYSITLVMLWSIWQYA

[6] = Toxicity in male Wistar rat assessed as abnormalities in kidney at 20 mg/kg, ip; format: organism-based; conditions: in vivo
[7] = Toxicity in male Wistar rat assessed as abnormalities (breathing changes, low activity and narrowed eyes) at 20 mg/kg, ip measured after 4 hrs; format: organism-based; conditions: in vivo
[8] = Toxicity in male Wistar rat assessed as abnormalities in blood plasma at 20 mg/kg, ip; format: organism-based; conditions: in vivo
[9] = Toxicity in male Wistar rat assessed as abnormalities in liver at 20 mg/kg, ip; format: organism-based; conditions: in vivo
[10] = AUC in male Wistar rat brain at 20 mg/kg, ip; format: ADME, organism-based; design: dose 20 mg/kg, route ip; conditions: in vivo
[11] = Cmax in male Wistar rat plasma at 20 mg/kg, ip; format: ADME, organism-based; design: dose 20 mg/kg, route ip
[12] = target: T3, 5-hydroxytryptamine receptor 1A (Homo sapiens, UniProt P08908); assay: Displacement of [3H]-8-OH-DPAT from human 5-HT1A receptor expressed in HEK293 cells measured after 1 hr by Microbeta plate reader method; format: cell-based
T3 sequence (P08908 whole entry): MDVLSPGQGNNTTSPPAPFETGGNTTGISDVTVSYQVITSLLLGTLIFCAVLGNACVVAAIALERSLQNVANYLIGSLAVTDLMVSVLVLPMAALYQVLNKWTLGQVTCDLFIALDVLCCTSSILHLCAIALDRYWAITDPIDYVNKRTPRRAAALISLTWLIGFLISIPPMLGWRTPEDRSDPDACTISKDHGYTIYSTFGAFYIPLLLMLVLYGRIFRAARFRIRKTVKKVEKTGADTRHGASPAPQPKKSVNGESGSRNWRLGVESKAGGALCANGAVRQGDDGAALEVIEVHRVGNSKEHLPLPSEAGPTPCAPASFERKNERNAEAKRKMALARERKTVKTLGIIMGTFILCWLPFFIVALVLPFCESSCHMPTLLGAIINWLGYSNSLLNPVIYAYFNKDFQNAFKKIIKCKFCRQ

[13] = MRT in male Wistar rat brain at 20 mg/kg, ip; format: ADME, organism-based
[14] = Toxicity in male Wistar rat assessed as maximum tolerated dose administered intraperitoneally; conditions: in vivo, route ip
[15] = Half-life in male Wistar rat brain at 20 mg/kg, ip; format: ADME, organism-based
[16] = AUC in male Wistar rat plasma at 20 mg/kg, ip; format: ADME, organism-based; design: dose 20 mg/kg, route ip; conditions: in vivo
[17] = Cmax in male Wistar rat brain at 20 mg/kg, ip; format: ADME, organism-based; design: dose 20 mg/kg, route ip
[18] = Toxicity in male Wistar rat assessed as abnormalities (breathing changes, low activity, abdominal pain during manipulation, narrowed eyes and provoked vocalization) at 27.8 mg/kg, ip; format: organism-based; conditions: in vivo
[19] = Tmax in male Wistar rat brain at 20 mg/kg, ip; format: ADME, organism-based
[20] = Half-life in male Wistar rat plasma at 20 mg/kg, ip; format: ADME, organism-based
[21] = Tmax in male Wistar rat plasma at 20 mg/kg, ip; format: ADME, organism-based
[22] = MRT in male Wistar rat plasma at 20 mg/kg, ip; format: ADME, organism-based
[23] = Toxicity in male Wistar rat assessed as abnormalities (low activity and narrowed eyes) at 27.8 mg/kg, ip measured after 24 hrs; format: organism-based; conditions: in vivo
[24] = target: 5-hydroxytryptamine receptor 7 (Homo sapiens, UniProt P34969); assay: Displacement of [3H]-5-CT from human 5-HT7b receptor expressed in HEK293 cells measured after 1 hr by Microbeta plate reader method; format: cell-based
Chain of 5-hydroxytryptamine receptor 7 (P34969 whole entry): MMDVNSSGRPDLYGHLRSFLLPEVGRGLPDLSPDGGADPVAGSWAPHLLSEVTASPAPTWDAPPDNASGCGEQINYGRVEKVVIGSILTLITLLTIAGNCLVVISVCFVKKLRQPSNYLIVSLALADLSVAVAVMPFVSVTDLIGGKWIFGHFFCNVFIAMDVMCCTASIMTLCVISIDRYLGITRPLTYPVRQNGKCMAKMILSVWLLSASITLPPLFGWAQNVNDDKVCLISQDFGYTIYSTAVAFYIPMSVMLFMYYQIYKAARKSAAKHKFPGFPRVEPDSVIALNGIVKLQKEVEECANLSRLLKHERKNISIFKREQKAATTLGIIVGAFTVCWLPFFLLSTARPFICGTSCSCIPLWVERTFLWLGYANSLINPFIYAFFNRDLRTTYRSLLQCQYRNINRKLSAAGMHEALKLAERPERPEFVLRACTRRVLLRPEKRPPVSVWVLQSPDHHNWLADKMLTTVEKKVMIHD

Chain of 5-hydroxytryptamine receptor 2A (P28223 whole entry): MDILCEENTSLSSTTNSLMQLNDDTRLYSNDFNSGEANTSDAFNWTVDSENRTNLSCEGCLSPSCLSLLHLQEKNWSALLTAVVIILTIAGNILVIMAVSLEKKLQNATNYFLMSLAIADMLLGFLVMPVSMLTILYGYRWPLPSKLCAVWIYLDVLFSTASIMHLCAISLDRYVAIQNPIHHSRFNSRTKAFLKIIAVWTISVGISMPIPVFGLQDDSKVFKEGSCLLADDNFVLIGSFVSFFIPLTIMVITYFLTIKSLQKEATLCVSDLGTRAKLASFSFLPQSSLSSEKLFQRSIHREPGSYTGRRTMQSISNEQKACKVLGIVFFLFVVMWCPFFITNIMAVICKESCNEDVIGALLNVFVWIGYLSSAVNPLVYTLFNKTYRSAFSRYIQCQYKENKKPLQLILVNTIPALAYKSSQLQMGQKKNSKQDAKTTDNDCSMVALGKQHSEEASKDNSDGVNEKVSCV

| SMILES | Ki [1] [µM] | Ki (D(2) dopamine receptor) [µM] | IC50 [2] [µM] | Papp [3] [×10⁻⁶ cm/s] | IC50 at 24 h [4] [µM] | other results |
| --- | --- | --- | --- | --- | --- | --- |
| N#Cc1cccnc1N1CCN(CCN2CCN(c3cccc(Cl)c3Cl)CC2)CC1 | 1.3 | 0.21 | 1 | 7.9 | 220 |  |
| COc1ccccc1N1CCN(CCCN2CCN(C(=O)c3ccccc3)CC2)CC1 | 30 | 0.26 |  | 11 | 1300 |  |
| Cn1nc(C(=O)N2CCN(CCN3CCN(c4cccc(Cl)c4Cl)CC3)CC2)c2ccccc21 | 1.8 | 0.13 | 1 | 6.8 | 45 |  |
| COc1ccccc1N1CCN(CCCN2CCN(C(=O)c3ccccn3)CC2)CC1 |  | 0.59 |  | 8.7 | 1900 |  |
| O=C(c1ccccn1)N1CCN(CCCN2CCN(c3cccc(Cl)c3Cl)CC2)CC1 | 2.3 | 0.082 |  | 17 | 290 | pKb [5]: 5.3 |
| COc1ccccc1N1CCN(CCCN2CCN(c3ncccc3C#N)CC2)CC1 | 23 |  |  | 20 |  | Activity [6]: Non-Toxic; Activity [7]: Toxic; Activity [8]: Non-Toxic; Activity [9]: Non-Toxic; AUC [10]: 272930.4 nmol·min/L; Cmax [11]: 3.21 µM; Ki [12]: 0.018 µM; MRT [13]: 57.8 min; MTD [14]: 2.78 mg/kg; half-life [15]: 26.7 min; AUC [16]: 91958.8 nmol·min/L; Cmax [17]: 3.52 µM; Activity [18]: Toxic; Tmax [19]: 5 min; half-life [20]: 48.8 min; Tmax [21]: 5 min; MRT [22]: 61.4 min; Activity [23]: Toxic; Ki [24]: 2.7 µM |
| O=C(c1ccccc1)N1CCN(CCCN2CCN(c3ccccc3)CC2)CC1 | 6.5 | 2.1 |  | 20 | 1300 |  |
| COc1ccccc1N1CCN(CCN2CCN(C(=O)c3nn(C)c4ccccc34)CC2)CC1 | 8.3 | 0.63 | 3 | 13 | 780 |  |
| N#Cc1cccnc1N1CCN(CCCCOc2ccc3c(c2)NC(=O)CC3)CC1 | 7.4 | 2.1 |  | 12 | 1000 |  |
| COc1ccccc1N1CCN(CCN2CCN(c3ncccc3C#N)CC2)CC1 |  | 0.13 | > 10 | 14 | 780 |  |
| O=C1CCc2ccc(OCCCCN3CCN(C(=O)c4ccccn4)CC3)cc2N1 | 6.9 | 0.009 | > 10 | 9.4 | 89 |  |
| COc1ccc(N2CCN(CCCN3CCN(c4ncccc4C#N)CC3)CC2)cc1 | 40 | 1.5 | 3 | 24 | 360 |  |
